Results from the supplement of paper PMC10307832.

How the values were obtained:
[1] = compound: COC1=CC=C(C=C1)CN2C=CC3=C2C=C(C=C3)C(=O)NO; test: relative viability (nuclei count vs DMSO), 5 days (fraction); higher = more cells survive
Outline: (§1)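 A plate was accepted only when its control CV was below 25% and the cells had doubled at least once. Viability is defined from nuclear counts as treated wells divided by vehicle wells, with the median taken across plates. That median covers lung cancer cell lines grown in 1536-well plates, dosed by pinning at five √10-spaced library-drug concentrations, and counted in MetaXpress from 4× Hoechst images after 5 days.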

[2] = compound: C[C@]1(c2nc3c(C(N)=O)cccc3[nH]2)CCCN1 [Veliparib]; test: as above
Outline: as §1

Cell Line	relative viability ([1]; 0.08 µM)	relative viability ([1]; 0.253 µM)	relative viability ([1]; 0.8 µM)	relative viability ([1]; 2.53 µM)	relative viability ([1]; 8 µM)	relative viability ([2]; 0.02 µM)	relative viability ([2]; 0.06325 µM)	relative viability ([2]; 0.2 µM)	relative viability ([2]; 0.6325 µM)	relative viability ([2]; 2 µM)
201T	1.02	0.987	1.05	0.993	0.942	0.901	0.926	0.959	1.11	1.01
A549	0.905	1.01	0.953	0.986	0.895	1	0.957	0.962	0.9	0.989
A-427		0.98	1.01	0.952	0.806	0.781	0.995	0.943	0.939	0.841
ABC-1		0.941	0.845	0.94	0.703		0.842	0.925	0.841	0.958
BEN	1.03	0.986	0.936	0.976	0.856	0.833	0.873	0.987	0.86	0.87
CAL-12T	1.02	0.889	1.04	1.05	0.891	0.918	0.926	0.981	0.9	1.02
COR-L23	0.874	0.992	1	1.01	0.933	0.998	0.872	0.924	0.952	1.03
COR-L 105	0.679	0.928	0.936	0.799	0.565	0.843	0.794	0.895	0.835	1.08
Calu-6	0.825	1.01	1.03	0.998	0.977	1	0.968	0.935	0.905	1
ChaGo-K-1		1.04	1.01	1	0.834	0.842	0.978	0.966	0.965	0.775
EBC-1	0.71	0.931	1.04	0.987	0.923	1.05	0.93	0.983	0.915	1
EKVX	0.782	1.02	0.991	1.05	0.957	0.744	0.93	0.94	1	0.972
EMC-BAC-2	0.88		1.08	0.979	0.873	1.01	0.786	1.09	1.11	0.965
EPLC-272H	0.753	0.871	1	0.974	0.766		0.855	1.02	1.01	0.938
H3255	0.992	0.957	0.948	0.968	0.842	0.919	0.92	0.962	0.951	0.992
HARA		1.02	1.08	0.89	0.884	0.858	0.939	0.955	0.979	0.915
HCC-15	0.883	0.965	1.11	1.01	0.935	0.89	0.952	1.04	0.985	1.05
HCC-44	0.916	0.923	1.03	1.05	1	0.971	0.798	0.958	1.01	0.94
HCC-78	0.803	0.876	1.01	1.02	0.917	0.987	0.829	0.949	0.828	0.888
HCC-366	0.791	0.993	0.973	0.964	1.01	1.03	0.992	1	1.01	1.03
HCC-827	1.06	0.935	0.997	1.03	0.97	0.986	1.03	1	0.977	1.07
HOP-62	0.865	1.01	0.992	1.03	0.958	0.934	0.909	0.963	0.976	1.02
IA-LM	0.91	0.949	1.03	1.08	0.868	0.918	0.831	0.952	0.896	0.886
LC-2-ad	0.937	0.977	1.04	0.976	0.963	0.608	0.944	0.977	0.941	0.867
LCLC-97TM1		1.03	1.02	0.942	0.887	0.903	0.925	0.897	0.912	0.993
LCLC-103H	1.03	1.01	1.01	0.984	0.973	1	0.893	0.999	1.01	0.969
LK-2		1.03	1.07	0.992	0.949	0.861	1.06	1.08	0.916	0.964

Cell Line	relative viability ([1]; 0.08 µM)	relative viability ([1]; 0.253 µM)	relative viability ([1]; 0.8 µM)	relative viability ([1]; 2.53 µM)	relative viability ([1]; 8 µM)	relative viability ([2]; 0.02 µM)	relative viability ([2]; 0.06325 µM)	relative viability ([2]; 0.2 µM)	relative viability ([2]; 0.6325 µM)	relative viability ([2]; 2 µM)
LOU-NH91	0.717	0.95	1	0.991	0.944	0.941	0.893	1.01	0.931	0.992
LU99A		0.932	1.11	0.916	0.932	0.984	0.902	0.771	0.863	0.994
LXF-289		1.01	1	0.992	0.992	0.996	0.992	1.03	0.941	1
NCI-H23	0.776	1.06	1.09	0.968	0.721	0.89	0.77	0.948	0.951	0.96
NCI-H322M		0.948	1.06	0.925	0.931		0.872	1.07	0.963	0.903
NCI-H358		0.945	1.09	0.976	0.746	0.762	0.856	0.924	0.941	0.94
NCI-H441	0.997	1.03	1.18	1.04	0.867	1.09	0.967	0.982	0.772	0.884
NCI-H460	0.902	1	0.994	0.992	0.968	0.93	0.952	0.967	0.931	0.964
NCI-H520	0.708	1.04	1.03	1.04	0.97	0.977	0.975	0.97	0.87	0.993
NCI-H522		0.946	0.968	0.869	0.793	0.947	0.958	0.912	1.07	1.04
NCI-H596	0.962	1.1	1.08	0.989	0.947	0.932	0.933	0.966	0.93	0.908
NCI-H647	0.754	0.909	1.02	0.989	0.869	1.02	0.945	1.03	0.813	1.03
NCI-H650	0.903	0.834	0.888	0.949	0.891	0.765	0.799	0.834	0.783	0.731
NCI-H661		0.981	0.96	0.958	0.892	0.963	0.918	0.945	0.929	1
NCI-H727	0.853	0.941	0.899	0.983	0.927	0.941	0.913	1.06	0.897	1
NCI-H838		1.01	0.964	0.98	0.871	1.05	0.909	0.974	0.9	1.02
NCI-H1299	1.01	1.04	1.03	1.02	0.99	0.993	1	1.01	0.968	1.02
NCI-H1355	0.814	0.996	0.987	0.995	0.874		0.835	1.03	0.943	0.944
NCI-H1395	0.752	0.915	0.877	0.963	0.753	0.594	0.655	0.791	0.817	0.692
NCI-H1437	0.912	0.978	1.05	1.06	1.05	0.815	0.958	0.971	0.972	0.963
NCI-H1563	0.843	1.09	0.955	0.968	0.908	0.851	0.953	0.956	0.966	1.05
NCI-H1623	0.812	0.975	0.999	0.982	0.897	0.762	0.883	0.959	1.01	0.984
NCI-H1648	1	0.875	1.01	0.991	0.735	1.08	0.94	0.738	0.944	0.81
NCI-H1650	0.787	0.87	1.01	0.946	0.689		0.846	1.01	0.875	0.874
NCI-H1651	0.918	0.963	0.969	0.91	0.926	0.977	0.906	0.96	0.882	0.915
NCI-H1666	0.891	0.99	1.09	1.03	1.03	0.943	0.976	0.981	0.876	0.937
